Tests used:
[1] = target: Hepatocyte growth factor receptor (Homo sapiens) (UniProt P08581); test: Inhibition of cMET (unknown origin) at 1 uM
[2] = target: Tyrosine-protein kinase ABL1 (Homo sapiens) (UniProt P00519); test: Inhibition of ABL (unknown origin) at 1 uM
[3] = target: Serine/threonine-protein kinase pim-1 (Homo sapiens) (UniProt P11309); test: Inhibition of PIM1 (unknown origin) at 1 uM
[4] = target: Death-associated protein kinase 3 (Homo sapiens) (UniProt O43293); test: Inhibition of DAPK3 (unknown origin) at 1 uM
Death-associated protein kinase 3 (Homo sapiens), sequence (O43293 whole entry, looked up): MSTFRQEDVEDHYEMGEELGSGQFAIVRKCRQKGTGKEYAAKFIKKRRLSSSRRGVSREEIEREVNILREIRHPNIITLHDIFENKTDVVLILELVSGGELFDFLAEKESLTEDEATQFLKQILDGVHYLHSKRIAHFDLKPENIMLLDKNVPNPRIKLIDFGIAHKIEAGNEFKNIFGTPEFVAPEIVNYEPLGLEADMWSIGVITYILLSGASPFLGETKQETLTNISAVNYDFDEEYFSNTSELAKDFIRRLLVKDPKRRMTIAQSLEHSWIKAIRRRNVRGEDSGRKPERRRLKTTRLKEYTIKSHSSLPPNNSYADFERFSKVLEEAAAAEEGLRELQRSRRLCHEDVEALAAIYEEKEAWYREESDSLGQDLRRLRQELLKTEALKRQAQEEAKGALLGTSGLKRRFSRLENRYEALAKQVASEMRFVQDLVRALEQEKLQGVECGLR

[5] = target: Angiopoietin-1 receptor (Homo sapiens) (UniProt Q02763); test: Inhibition of TIE2 (unknown origin) at 1 uM
[6] = target: Tyrosine-protein kinase SYK (Homo sapiens) (UniProt P43405); test: Inhibition of SYK (unknown origin) at 1 uM
[7] = target: Proto-oncogene tyrosine-protein kinase Src (Homo sapiens) (UniProt P12931); test: Inhibition of SRC (unknown origin) at 1 uM
Proto-oncogene tyrosine-protein kinase Src (Homo sapiens), sequence (P12931 2-536 limits assumed): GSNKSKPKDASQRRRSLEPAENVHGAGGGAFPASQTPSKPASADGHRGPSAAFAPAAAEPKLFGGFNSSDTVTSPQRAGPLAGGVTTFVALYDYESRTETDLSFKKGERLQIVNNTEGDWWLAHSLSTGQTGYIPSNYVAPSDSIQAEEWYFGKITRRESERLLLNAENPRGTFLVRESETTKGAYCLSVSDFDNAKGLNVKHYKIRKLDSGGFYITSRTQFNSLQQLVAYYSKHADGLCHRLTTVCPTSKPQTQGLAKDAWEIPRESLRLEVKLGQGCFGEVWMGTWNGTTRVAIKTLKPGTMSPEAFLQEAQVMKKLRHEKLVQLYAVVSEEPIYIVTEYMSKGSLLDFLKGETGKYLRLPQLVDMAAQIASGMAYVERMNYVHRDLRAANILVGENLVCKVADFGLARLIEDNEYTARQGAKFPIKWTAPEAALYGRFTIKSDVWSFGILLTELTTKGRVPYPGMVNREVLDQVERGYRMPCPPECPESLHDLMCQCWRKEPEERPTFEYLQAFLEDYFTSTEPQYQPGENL

[8] = target: T1, Serine/threonine-protein kinase Chk1 (Homo sapiens) (UniProt O14757); test: Inhibition of CHK1 (unknown origin) at 1 uM
T1 sequence (whole entry): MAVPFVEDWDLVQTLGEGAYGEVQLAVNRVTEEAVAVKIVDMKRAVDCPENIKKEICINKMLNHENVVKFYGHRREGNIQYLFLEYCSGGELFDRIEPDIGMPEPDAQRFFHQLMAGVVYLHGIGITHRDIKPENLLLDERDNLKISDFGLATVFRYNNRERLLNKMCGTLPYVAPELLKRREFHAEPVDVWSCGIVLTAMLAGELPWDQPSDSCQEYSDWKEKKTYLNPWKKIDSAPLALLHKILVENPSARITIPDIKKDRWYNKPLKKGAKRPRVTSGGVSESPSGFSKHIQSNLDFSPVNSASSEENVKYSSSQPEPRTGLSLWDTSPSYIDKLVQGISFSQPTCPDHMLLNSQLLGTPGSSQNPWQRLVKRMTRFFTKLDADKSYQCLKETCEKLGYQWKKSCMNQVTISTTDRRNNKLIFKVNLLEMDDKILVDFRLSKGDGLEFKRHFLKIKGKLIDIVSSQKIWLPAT

[9] = target: T2, Tyrosine-protein kinase JAK3 (Homo sapiens) (UniProt P52333); test: Inhibition of JAK3 (unknown origin) at 1 uM
T2 sequence (whole entry): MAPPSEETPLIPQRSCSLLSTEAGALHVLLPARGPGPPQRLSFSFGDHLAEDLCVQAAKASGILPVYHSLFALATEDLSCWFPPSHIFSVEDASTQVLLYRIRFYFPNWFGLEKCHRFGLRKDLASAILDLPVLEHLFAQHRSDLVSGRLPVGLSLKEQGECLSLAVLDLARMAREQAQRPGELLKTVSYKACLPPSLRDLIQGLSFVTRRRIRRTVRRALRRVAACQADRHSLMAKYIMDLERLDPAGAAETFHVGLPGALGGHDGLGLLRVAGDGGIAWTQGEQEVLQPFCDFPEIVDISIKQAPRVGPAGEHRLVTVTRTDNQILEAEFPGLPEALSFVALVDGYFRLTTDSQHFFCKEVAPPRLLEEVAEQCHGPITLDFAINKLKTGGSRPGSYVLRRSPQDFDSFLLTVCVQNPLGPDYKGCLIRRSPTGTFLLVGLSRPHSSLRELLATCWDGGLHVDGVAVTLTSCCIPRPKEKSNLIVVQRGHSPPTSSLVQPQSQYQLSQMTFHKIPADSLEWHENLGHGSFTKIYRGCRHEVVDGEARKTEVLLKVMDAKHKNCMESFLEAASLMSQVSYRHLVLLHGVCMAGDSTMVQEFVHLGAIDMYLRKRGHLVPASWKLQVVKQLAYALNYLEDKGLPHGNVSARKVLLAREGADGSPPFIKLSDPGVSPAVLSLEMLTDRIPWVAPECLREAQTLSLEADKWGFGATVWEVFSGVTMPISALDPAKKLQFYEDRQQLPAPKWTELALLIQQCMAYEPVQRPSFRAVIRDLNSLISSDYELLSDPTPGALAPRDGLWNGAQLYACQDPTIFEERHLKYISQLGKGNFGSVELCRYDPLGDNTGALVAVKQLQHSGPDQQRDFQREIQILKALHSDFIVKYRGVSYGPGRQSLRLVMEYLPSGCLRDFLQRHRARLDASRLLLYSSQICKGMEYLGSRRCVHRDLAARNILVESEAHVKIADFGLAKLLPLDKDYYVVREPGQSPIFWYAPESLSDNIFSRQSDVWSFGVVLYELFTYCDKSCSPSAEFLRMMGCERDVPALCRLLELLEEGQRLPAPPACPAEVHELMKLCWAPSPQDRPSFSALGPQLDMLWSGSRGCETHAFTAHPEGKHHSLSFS

[10] = target: Serine/threonine-protein kinase PLK3 (Homo sapiens) (UniProt Q9H4B4); test: Inhibition of PLK3 (unknown origin) at 1 uM
Serine/threonine-protein kinase PLK3 (Homo sapiens), sequence (Q9H4B4 whole entry, looked up): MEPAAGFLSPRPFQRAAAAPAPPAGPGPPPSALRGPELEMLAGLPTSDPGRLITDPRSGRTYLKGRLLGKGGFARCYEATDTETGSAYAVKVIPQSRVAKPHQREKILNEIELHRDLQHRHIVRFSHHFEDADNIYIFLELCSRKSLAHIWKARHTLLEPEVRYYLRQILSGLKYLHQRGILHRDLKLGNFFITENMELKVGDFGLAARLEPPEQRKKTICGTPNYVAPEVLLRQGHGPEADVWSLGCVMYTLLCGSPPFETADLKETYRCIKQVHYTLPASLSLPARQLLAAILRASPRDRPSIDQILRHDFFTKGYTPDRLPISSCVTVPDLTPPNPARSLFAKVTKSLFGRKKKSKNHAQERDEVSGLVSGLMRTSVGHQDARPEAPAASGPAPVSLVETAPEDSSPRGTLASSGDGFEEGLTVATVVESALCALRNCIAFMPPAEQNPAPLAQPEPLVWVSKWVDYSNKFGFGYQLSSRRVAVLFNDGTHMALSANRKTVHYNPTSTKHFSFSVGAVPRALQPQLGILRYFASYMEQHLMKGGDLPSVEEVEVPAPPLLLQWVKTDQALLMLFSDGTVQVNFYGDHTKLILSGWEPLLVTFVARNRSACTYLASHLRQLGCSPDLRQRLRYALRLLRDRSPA

Tyrosine-protein kinase ABL1 (Homo sapiens), sequence (P00519 whole entry): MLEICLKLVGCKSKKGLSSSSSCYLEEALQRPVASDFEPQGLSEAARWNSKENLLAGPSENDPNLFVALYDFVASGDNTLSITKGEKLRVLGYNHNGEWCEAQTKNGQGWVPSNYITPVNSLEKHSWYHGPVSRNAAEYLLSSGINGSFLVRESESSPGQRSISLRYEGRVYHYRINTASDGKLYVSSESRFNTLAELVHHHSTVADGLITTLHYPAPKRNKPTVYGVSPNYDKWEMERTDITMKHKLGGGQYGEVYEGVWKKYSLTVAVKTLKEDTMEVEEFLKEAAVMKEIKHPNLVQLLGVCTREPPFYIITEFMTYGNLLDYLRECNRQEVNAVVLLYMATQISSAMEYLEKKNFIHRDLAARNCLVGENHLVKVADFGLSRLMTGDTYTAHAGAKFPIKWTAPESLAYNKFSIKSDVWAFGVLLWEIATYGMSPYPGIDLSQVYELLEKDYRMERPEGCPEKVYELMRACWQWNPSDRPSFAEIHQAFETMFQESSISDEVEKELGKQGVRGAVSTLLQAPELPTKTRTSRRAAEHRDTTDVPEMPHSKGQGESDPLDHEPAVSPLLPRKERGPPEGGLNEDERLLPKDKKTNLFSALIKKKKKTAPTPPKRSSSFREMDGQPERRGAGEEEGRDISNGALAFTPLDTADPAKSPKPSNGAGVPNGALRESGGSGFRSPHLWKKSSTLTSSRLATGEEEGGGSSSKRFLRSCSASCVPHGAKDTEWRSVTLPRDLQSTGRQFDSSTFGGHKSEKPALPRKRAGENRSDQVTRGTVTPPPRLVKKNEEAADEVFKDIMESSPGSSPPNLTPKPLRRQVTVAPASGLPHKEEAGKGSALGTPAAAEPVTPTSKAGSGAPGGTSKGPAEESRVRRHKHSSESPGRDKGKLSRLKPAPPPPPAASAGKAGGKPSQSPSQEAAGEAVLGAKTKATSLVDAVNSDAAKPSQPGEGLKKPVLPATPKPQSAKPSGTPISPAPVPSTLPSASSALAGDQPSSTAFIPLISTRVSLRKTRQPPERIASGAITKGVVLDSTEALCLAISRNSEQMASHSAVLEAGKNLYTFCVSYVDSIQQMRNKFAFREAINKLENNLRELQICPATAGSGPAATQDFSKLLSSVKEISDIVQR
Hepatocyte growth factor receptor (Homo sapiens), sequence (P08581 whole entry): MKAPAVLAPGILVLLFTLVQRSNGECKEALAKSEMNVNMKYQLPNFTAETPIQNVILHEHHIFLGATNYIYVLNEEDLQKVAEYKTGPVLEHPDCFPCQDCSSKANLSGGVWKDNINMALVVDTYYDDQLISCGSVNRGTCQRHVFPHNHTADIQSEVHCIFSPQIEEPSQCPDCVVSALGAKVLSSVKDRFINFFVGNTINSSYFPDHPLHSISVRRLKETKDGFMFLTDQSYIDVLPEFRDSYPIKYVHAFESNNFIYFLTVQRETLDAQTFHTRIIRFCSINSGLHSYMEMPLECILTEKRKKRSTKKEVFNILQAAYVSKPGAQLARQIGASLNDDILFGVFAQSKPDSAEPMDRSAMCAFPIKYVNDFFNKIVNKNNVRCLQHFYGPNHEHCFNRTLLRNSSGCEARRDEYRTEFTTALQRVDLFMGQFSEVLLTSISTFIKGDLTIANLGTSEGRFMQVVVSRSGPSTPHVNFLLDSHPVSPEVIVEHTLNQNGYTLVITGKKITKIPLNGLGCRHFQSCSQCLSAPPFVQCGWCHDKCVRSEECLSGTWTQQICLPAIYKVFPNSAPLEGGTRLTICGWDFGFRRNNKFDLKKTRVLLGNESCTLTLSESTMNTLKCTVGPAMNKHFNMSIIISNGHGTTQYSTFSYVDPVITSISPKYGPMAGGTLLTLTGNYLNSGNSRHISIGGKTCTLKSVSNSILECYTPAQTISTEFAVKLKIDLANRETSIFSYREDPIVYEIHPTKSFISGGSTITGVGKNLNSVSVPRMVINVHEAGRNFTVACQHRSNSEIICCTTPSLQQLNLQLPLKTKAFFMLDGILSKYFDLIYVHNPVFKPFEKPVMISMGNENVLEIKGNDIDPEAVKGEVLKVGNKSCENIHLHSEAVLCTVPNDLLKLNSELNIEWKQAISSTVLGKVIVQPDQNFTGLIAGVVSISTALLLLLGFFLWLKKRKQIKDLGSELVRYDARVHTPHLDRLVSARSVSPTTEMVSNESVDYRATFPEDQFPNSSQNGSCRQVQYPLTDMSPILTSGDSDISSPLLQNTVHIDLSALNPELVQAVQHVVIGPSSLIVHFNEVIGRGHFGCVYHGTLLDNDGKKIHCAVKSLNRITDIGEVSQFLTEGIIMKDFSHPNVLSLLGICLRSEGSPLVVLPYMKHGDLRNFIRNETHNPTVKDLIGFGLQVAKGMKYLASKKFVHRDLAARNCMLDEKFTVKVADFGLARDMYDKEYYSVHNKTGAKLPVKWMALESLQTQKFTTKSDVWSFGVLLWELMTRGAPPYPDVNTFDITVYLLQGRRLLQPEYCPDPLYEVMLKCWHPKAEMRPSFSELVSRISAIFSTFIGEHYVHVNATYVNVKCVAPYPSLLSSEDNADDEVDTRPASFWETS
Serine/threonine-protein kinase pim-1 (Homo sapiens), sequence (P11309 whole entry, looked up): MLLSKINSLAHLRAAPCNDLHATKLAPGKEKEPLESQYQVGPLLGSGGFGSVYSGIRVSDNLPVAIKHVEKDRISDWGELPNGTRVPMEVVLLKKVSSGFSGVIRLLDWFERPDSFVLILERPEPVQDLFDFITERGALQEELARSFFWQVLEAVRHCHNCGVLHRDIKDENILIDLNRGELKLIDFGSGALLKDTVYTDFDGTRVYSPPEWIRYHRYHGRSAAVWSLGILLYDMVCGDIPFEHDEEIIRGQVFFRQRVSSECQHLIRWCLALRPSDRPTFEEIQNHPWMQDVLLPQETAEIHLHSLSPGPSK

inhibition [1]: 22%
inhibition [2]: 17%
inhibition [3]: 6%
inhibition [5]: 10%
inhibition [6]: 14%
inhibition [7]: 7%
inhibition [8]: 9%
inhibition [9]: 10%
inhibition [10]: 4%
Compound: Cn1c(=O)c(Oc2ccc(F)cc2F)cc2cnc(NC3CCN(S(N)(=O)=O)CC3)nc21
inhibition [4]: 0%

Source: ChEMBL document CHEMBL3745672, “Novel compounds reducing IRS-1 serine phosphorylation for treatment of diabetes” (Bioorg Med Chem Lett, 2016)
